Measured values published in patent US20250127778A1, “CANCER IMMUNOTHERAPY COMPOSITION CONTAINING INTERACTION INHIBITOR OF STING AND TRIM29 AS ACTIVE INGREDIENT” (SPARK BIOPHARMA, INC, priority 2021, published 2025).

Tests used:
[1] = system: STING subcytokines (IFN-β, IL-6, IL-15, IL-15Rα); assay: qRT-PCR of STING subcytokine gene expression in Raw264.7 cells; format: cell-based, mouse; details: time-dependent and concentration-dependent, FIG. 6
Procedure: In order to confirm whether the oxopiperazine derivatives of Formulas 1 to 6 increase the immune activation efficacy of the STING agonist cGAMP by increasing the amount of STING, the gene expression levels of the STING subcytokine interferon-beta (IFN-β), interleukin-6 (IL-6), interleukin-15 (IL-15), and interleukin-15 receptor alpha (IL-15Rα) were confirmed through quantitative real-time PCR (qRT-PCR) experiments.
Specifically, Raw264.7 cells were seeded in a transparent 12-well plate and cultured for one day. Thereafter, the cells were treated with cGAMP and the oxopiperazine derivatives of Formulas 1 to 6, respectively, and then cultured for six hours. Finally, after the supernatant culture medium of the cells was removed, the remaining supernatant was diluted with PBS (phosphate buffer saline) and removed to prepare qRT-PCR samples. mRNA was extracted from cells by using the RNeasy mini kit of QIAGEN according to the protocol of the manufacturer. After the concentration of RNA was measured by using Nanoview equipment of GE Healthcare, 1 μg RNA was quantified, and complementary DNA (cDNA) was synthesized by using the Accupower cyclescript RT premix dT20 (Bioneer) product according to the protocol of the manufacturer. […] The mixed samples were analyzed by using the StepOne Plus Real-Time PCR system (Applied Biosciences), and the results were plotted by using the Prism 8.0 program.

CD8+ T cells = assay: T cell death analysis (Annexin V/7-AAD) of CD8+ T cells; format: cell-based; details: alone or in combination with cGAMP, 24 hours; FIG. 21
Procedure: CD8^+ T cells were obtained from the lymph nodes of C57BL/6 mice and separated by using MACS. CD8^+ T cells were activated on plates pre-coated with 1 μg/mL anti-CD3 and 0.5 μg/mL of anti-CD28 in the presence of 5 ng/ml of IL-2. After incubation for 24 hours in a 5% CO2 incubator at 37° C., activated CD8^+ T cells were treated with cGAMP and/or the compound of Formula 1 in various concentrations and incubated for additional 24 hours. The cells were harvested and stained with Annexin V/7-AAD to observe cell death. Data shown refer to at least three independent experiments.

## COc1ccc(CC2=CN(c3ccc(C(=O)NC[C@H]4CCCO4)cc3[N+](=O)[O-])[C@H](C(C)C)C(=O)N2Cc2ccc(O)cc2)cc1 [Formula 1, 4-((R)-4-(4-hydroxybenzyl)-2-isopropyl-5-(4-methoxybenzyl)-3-oxo-3,4-dihydropyrazin-1 (2H)-yl)-3-nitro-N-(((R)-tetrahydrofuran-2-yl)methyl)benzamide]
[1]
  expression of IL-15 and IL-15Rα: increased
CD8+ T cells
  death of cytotoxic T cells: did not induce or promote the death of cytotoxic T cells
